Measured values published in patent publication EP0719271B1, “5-(1-FLUORO-VINYL)-1H-PYRIMIDINE-2,4-DIONE DERIVATIVES USEFUL AS ANTINEOPLASTIC AGENTS” (MERRELL PHARMACEUTICALS INC., priority 1993, dated 1995).
Read-outs that look alike come from different tables or passages of the source.

System: KB cells
Experiment: Antiproliferative activity against KB cells, cell viability by colorimetric MTT reduction assay
Format: cell-based
Details: Homo sapiens
Protocol: Plate KB cells (2X10^3 cells/well) and allow to grow for 18 hours. Treat with 2'-deoxy-5-(1-fluoroethenyl)uridine (15ng/mL) for 24 hours. Wash the compound and expose cells to 5-fluorouracil for another 72 hours. Determine the cell viability by a colorimetric assay, essentially as described by Carmichael et al. [Cancer Res. 47, 936 (1987)], whereby the cellular reduction of MTT [3-(4,5-dimethylthiazol-2-yl)-2,5-diphenyltetrazolium bromide] is measured.
Calculate IC50 values for the individual treatments as well as for the combined treatments of 2'-deoxy-5-(1-fluoroethenyl)-uridine with 5-fluorouracil. The IC50 values at the various concentrations of 2'-deoxy-5-(1-fluoroethenyl)-uridine alone, 5-fluorouracil alone and 2'-deoxy-5-(1-fluoroethenyl)-uridine in combination with 5-fluorouracil are presented in Table 1.

C=C(F)c1cn([C@H]2C[C@H](O)[C@@H](CO)O2)c(=O)[nH]c1=O [2'-Deoxy-5-(1-fluoroethenyl)-uridine, 2'-deoxy-5-(1-fluoroethenyl)uridine] was tested, and the IC50 (individual treatment (compound alone), KB cells, 2X10^3 cells/well, MTT viability, read-out: IC50) was 9.4 µM.
For O=c1[nH]cc(F)c(=O)[nH]1 [5-Fluorouracil], the IC50 (KB) was 60 µM.
